Assays:
periportal liver = details: in vivo; cited from earlier work
[1] = tested on: Spraque Dawley male white mice; experiment: Extent of hepatic fibrosis by histological examination (Batts and Ludwig classification) after repeated allylalcohol injection; type: in vivo, white mouse
Procedure: (§1) Of the forty total Spraque Dawley male white mice(weight 150-200 g), 10 mice were used as a control group and 30 mice were treated with allylalcohol.
(§2) 30 mice with treated allylalcohol were devided into three groups, each containing 10 mice. The 1st group was administered an injection with allylalcohol dissolved in saline solution with 0.3 mmole/kg into a peritoneal cavity twice a week. The 2nd and 3rd groups received 0.62 mmole/kg and 0.93 mmole/kg of allylalcohol, respectively, via the same method.
(§3) The animals were maintained 23° C. and 40% of relative humidity. The intensity of illumination was maintained for 12 hours from 6 A.M. to 6 P.M. They were sacrificed after 8 weeks.
(§4) The present inventors used total of 30 Spraque-Dawley male white mice, injected 0.62 mmole/kg allylalcohol into the peritoneal cavity twice a week, and sacrificed ten mice each time after 4 weeks, 8 weeks, and 16 weeks.
(§5) The liver tissues of 30 mice obtained from the Example <1-2> were fixed in 10% formalin solution, stained with Masson's trichrome, and observed for the determination of fibrosis under light microscope.

[2] = tested on: Spraque-Dawley male white mice; experiment: Quantification of hepatic fibrosis by the numerical scoring system; type: in vivo, white mouse
Text: In order to include width of fibrosis septa and fibrosis development in sinusoid as well as that between the portals, these inventors had quantified the extent of the fibrosis using the numerical scoring system reported by Castilla-Cortaza(1997) and Oberti (1997).
To systemically analyze the result of the numerical scoring system, these inventors also used the Image precessing and analysis system program (Leica Q500 MC, Leica Cambridge Ltd, Cambridge, U. K., 1994).
The length of septa was classified as score “4” when the septa showing fibrosis from one portal to the other is one whole length, score “3” for up to ⅔, score “2” for up to ⅓, and score “1” for less than ⅓. For the width of septa, the score from 2-6 was given for the mean of widths of three different periportal septa, centriperiveinal septa and perinodal septa at four different sites.
The number for the width of septa was determined by measuring the fibrotic region of blood vessel in one node that score “4” when the whole node was filled with the fibrotic strand and a large number of the septa made the micronode, score “3” when the fibrosis region occupied up to ⅔ of the whole node area, score “2” up to ⅓, and score “1” when the fibrosis strand was little in the node.
as §4, §5

TGF β1 mRNA = experiment: Semi-quantitative measurement of TGF β1 mRNA expression in the liver tissue by RT-PCR; type: in vivo, white mouse
Procedure: Total RNA of the mouse liver tissue stored at −70° C. was extracted by one-step method using acid guanidinium thiocyanate-phenol-chloroform (AGPC, 1987) of Chomczynski and Sacchi. […] of the frozen liver tissue was homogenized in 1 ml of denaturing solution (4 M guanidinium thiocyanate, 25 mM sodium citrate, pH 7, 0.5% sarcosyl, 0.1 M 2-mercapto ethanol).
After the addition of 1 ml of phenol and 100 ul of chloroform were added to it, the homogenate was shaken thoroughly for 15 sec, left at 4° C. for 5 min, and centrifuged at 12,000 g and 4° C. for 15 min. The supernatant (aqueous phase) was withdrawn, mixed with equal volume of isopropanol, left at 4° C. for 15 min, and centrifuged as before.
RNA pellet was collected, washed with 75% ethanol twice, and centrifuged at 7,500 g and 4° C. for 8 min to remove ethanol. RNA pellet was dried under vacuum using the Speed Vac concentrator at −70° C. for 15 min. The dried RNA was dissolved in 20 ul of deionized distilled water(DDW) treated with 0.1% di-ethyl-pyro-carbonate (DEPC), and stored at −70° C. RNA concentration was determined by spectrophotometric measurement of absorbance at 260 nm. When the absorption ratio of A260/A280 used as an index of purity, exceeds 1.8, RNA samples were considered pure.
For the synthesis of cDNA of TGF β1 mRNA, 2 ul of total RNA extracted from the mouse liver tissue was mixed with 10 unit of Molony murine leukemia virus reverse transcriptase(M-MuLV RT), 100 ng of oligo-dT15, 1 ul of dNTP (dGTP, dATP, dTTP, dCTP), RNase inhibitor 20 unit, 0.5 ul of 100 mM dithitritol (DTT) and 4 ul of 5×buffer solution, and total volume of the reaction mixture was adjusted to 20 ul by adding 0.1% DEPC-treated DDW.
The reaction mixture was heated at 37° C. for 90 min and 95° C. for 5 min, and rapidly cooled down on ice. 80 ul of DDW was added to this cDNA mixture which was then used as a PCR template.
For amplification of TGF β1 cDNA template, a sense-primer represented by SEQ ID NO.1 and an antisense-primer represented by SEQ ID NO.2 was synthesized. The position and the PCR product size of the primer set were described in Table 7. The concentration of the synthesized primer was adjusted to 10 pmole/ul by dissolving in TE buffer solution and stored at −20° C. until used.
cDNA solution was diluted by two times until the concentration was to be 2^−1, 2^−2, 2^−3, , , , , and 2^−10, and used as PCR templates. 50 ul total of PCR reaction solution contained 4 ul of cDNA template solution, 1 unit of Taq DNA polymerase, each of 1 ul the antisense and the sense primer, 1 ul of dNTP, 5 ul of 10×buffer solution (containing 2.5 mM MgCl2) and 37.7 ul of DDW.
To prevent vaporization of the sample at high temperature, 20 ul of mineral oil was added to the reaction mixture. PCR reaction was performed with PCR automated thermal cycler (Perkin Elmer) by using a hot start method. The hot start method included a denaturation step at 94° C. for 4 min, and the primer annealing and extension step at 65° C. for 15 min (at this step, Taq DNA polymerase was added after 10 min).
The reaction system then underwent 35 cycles of heating 94° C. for 45 sec, 60° C. for 45 sec, and 72° C. for 2 min, and the extension step was completed with 5 min heating at 72° C. In the RNA synthesis, negative control was distilled water, and positive control was 1 ul of TGF β1 cDNA fragment solution provided from a Clontech Laboratory.
The amplified PCR product mixed with 6×DNA loading buffer (0.25% bromophenol blue, 0.25% xylene cylanol, 30% glycol) was analyzed by electrophoresis using 2% agarose gel containing 1 ul ethidium bromide with 1×TBE buffer solution(89 mM tris-borate, 2 mM EDTA). After the electrophoresis at 100 volt for 60 min, UV transilluminator was used to establish the visible band(FIG. 3).

[3] = tested on: Spraque-Dawley male white mice; experiment: Collagen content of liver tissues (dye-binding procedure of Jimenez); type: in vivo, white mouse; details: liver tissue
Procedure: The collagen content of liver tissues was measured by dye-binding procedure of Jimenez. The liver tissue fixed in 10% formalin and embedded in paraffin was sliced by 15 um of thickness and put on a slide glass.
After the paraffin was removed by xylene and alcohol, the sample was stained with the saturated picric acid solution containing 0.01% fast green FCF (Fluka AG, NO 42053, Switzerland), left at room temperature for 15 min, and washed with a phosphate buffer until most color came off. The sample was restained with the saturated picric acid solution containing 0.04% fast green and 0.1% Sirius red F3B (Gurr BDH Chemical Ltd., NO 34149, Poole, England), left at room temperature for 30 min in the darkroom, and washed as before.
The stained tissue sample was transferred into the tube containing 1 ml solution with equal volume of 0.1% sodium hydroxide and methanol, and the tube was slowly shaken until the color dissolved completely. The absorbance of the colored solution was measured with a spectrophotometer. The wavelength for maximum absorbance was 630 nm for fast green, and 540 nm for Sirius red. Since fast green also absorbed a little (7.78%) at 540 nm, these inventors made calculations correcting for the factor.
The amount of collagen per unit protein was obtained with the formula 1 using the color equivalence of 3 OD/mg protein and 37 OD/mg collagen for fast green and Sirius red, respectively. [formula]

[4] = tested on: Spraque Dawley male white mice; experiment: Death during repeated allylalcohol treatment; type: in vivo, white mouse
Procedure: as §1, §2, §3, §4

[5] = tested on: Spraque-Dawley male white mice; experiment: Serum alanine aminotransferase (ALT) activity; type: in vivo, white mouse; details: 0.62 mmole/kg i.p. twice a week
Procedure: as §4
To collect a specimen, the white mouse was sacrificed 72 hours after final injection. The mouse was put under general anesthesia using diethylether, and its abdomen was cut open at suspine position. 7-10 ml of whole blood was withdrawn with a syringe treated with heparine, and the liver tissue was extracted.
The collected blood sample was left at room temperature for 30 min, centrifuged at 3,000 g for 10 min. The serum was devided into several fractions and stored at −70° C. until used.
Serum alanine aminotransferase(hereinafter, as referred as “ALT”) activity was measured by using the automatic analyzer (Hitach, 747/200 type), which is based on the spectrophotometric quantification of […] loss using lactic dehydrogenase as a […] (Horder and Rej, 1983).

mouse = mouse treated with carbon tetrachloride, cited from earlier work
[6] = 0.62 mmole/kg i.p. twice a week, 16 weeks
[7] = 2nd group, 0.62 mmole/kg i.p. twice a week, 8 weeks
[8] = liver tissues of the 30 mice of Example 1-2, Masson's trichrome
[9] = 0.62 mmole/kg i.p. twice a week, 4 weeks
[10] = 0.62 mmole/kg i.p. twice a week, 8 weeks

## C=CC=O [Acrolein, acrolein]
Periportal liver
  liver toxicity: intense liver toxicity

## C=CCO [allylalcohol, Allylalcohol]
[1]; [6]
  number of mice with cirrhosis: 5
  number of mice with moderate hepatic fibrosis: 2
  number of mice with severe hepatic fibrosis: 3
[1]; [7]
  number of mice with mild hepatic fibrosis: 1
  number of mice with severe hepatic fibrosis: 5
[1]; 3rd group, 0.93 mmole/kg i.p. twice a week, 8 weeks
  number of mice with severe hepatic fibrosis: 2
[1]; [8]
  number of samples classified as cirrhosis: 5
  number of samples classified as mild: 7
  number of samples classified as moderate: 5
  number of samples classified as normal: 4
  number of samples classified as severe: 8
[2]; [9]
  number of mice with numerical score 1: 10
[2]; [10]
  number of mice with numerical score 8: 4
  number of mice with numerical score 9: 1
  number of mice with numerical score 10: 1
  number of mice with numerical score 11: 2
  number of mice with numerical score 12: 1
[2]; [6]
  number of mice with numerical score 7: 1
  number of mice with numerical score 8: 1
  number of mice with numerical score 10: 1
  number of mice with numerical score 11: 1
  number of mice with numerical score 12: 3
  number of mice with numerical score 13: 2
  number of mice with numerical score 14: 1
[2]; 4-week group, 0.62 mmole/kg i.p. twice a week
  extent of hepatic fibrosis by the numerical scoring system, all the animals: less than 2
[2]; 8-week group, 0.62 mmole/kg i.p. twice a week
  extent of hepatic fibrosis by the numerical scoring system, all the animals: higher than 7
[2]; 16-week group, 0.62 mmole/kg i.p. twice a week
  extent of hepatic fibrosis by the numerical scoring system, all the animals: higher than 7
[2]; cirrhosis group of the 30 treated mice
  numerical score: 12.4±1.5
[2]; mild group of the 30 treated mice
  numerical score: 2.6±1
[2]; moderate group of the 30 treated mice
  numerical score: 9.0±1.7
[2]; printed 'control group' (first histological class) of the 30 treated mice
  numerical score: 1.0±0
[2]; severe group of the 30 treated mice
  numerical score: 9.8±1.5
[2]; treated mice of Example 1-2
  number of tissue samples with score of 1-6: 10
  number of tissue samples with score of 7-10: 9
  number of tissue samples with score of 11-14: 10
TGF β1 mRNA; treated for 4 weeks, Table 9 line printed 'Score 1-6'
  TGF β1 mRNA: 4.7±2.4 unit/total RNA 2 ug
TGF β1 mRNA; treated for 8 weeks, Table 9 line printed 'Score 7-10'
  TGF β1 mRNA: 5.8±1.0 unit/total RNA 2 ug
TGF β1 mRNA; treated for 16 weeks, Table 9 line printed 'Score 11-14'
  TGF β1 mRNA: 5.7±2.3 unit/total RNA 2 ug
TGF β1 mRNA; treated mice with score 1-6
  TGF β1 mRNA: 4.7±2.4 unit/total RNA 2 ug
TGF β1 mRNA; treated mice with score 7-10
  TGF β1 mRNA: 5.8±1.5 unit/total RNA 2 ug
TGF β1 mRNA; treated mice with score 11-14
  TGF β1 mRNA: 5.7±2.0 unit/total RNA 2 ug
[3]; treated for 4 weeks
  Collagen content: 110.2±11.9 ug collagen/mg protein
[3]; treated for 8 weeks
  Collagen content: 132.5±29.3 ug collagen/mg protein
[3]; treated for 16 weeks
  Collagen content: 157.2±94.7 ug collagen/mg protein
[3]; treated mice with score 1-6
  Collagen content: 110.2±11.9 ug collagen/mg protein
[3]; treated mice with score 7-10
  Collagen content: 131.4±30.0 ug collagen/mg protein
[3]; treated mice with score 11-14
  Collagen content: 158.2±94.2 ug collagen/mg protein
[4]; [9]
  death (number of mice): 0
[4]; 0.62 mmole/kg i.p. twice a week, 8 weeks (Example 1-2)
  death (number of mice): 1
[4]; [6]
  death (number of mice): 0
[4]; 1st group, 0.3 mmole/kg i.p. twice a week, 8 weeks
  death (number of mice): 0
[5]; 4 weeks
  ALT activity: 69.6±39.8 U/L
[5]; 8 weeks
  ALT activity: 63.8±9.6 U/L
[5]; 16 weeks
  ALT activity: 75.5±15.9 U/L

## ClC(Cl)(Cl)Cl [carbon tetrachloride]
mouse; pretreatment with phenobarbitol
  induction period: 8-10 weeks
mouse
  time to irreversible accumulation of collagen: ≤ 20 weeks

Reference: patent US6479555B1, “Method for inducing hepatic fibrosis by repeated administration of allylalcohol” (priority 2000, dated 2002)
